What is called IC50 is the concentration that gives 50% inhibition. Higher therefore signals weaker potency in that assay.

These results are taken from publication PMC6225322, “Development of Kinase Inhibitors via Metal-Catalyzed C–H Arylation of 8-Alkyl-thiazolo[5,4-f]-quinazolin-9-ones Designed by Fragment-Growing Studies” (Molecules : A Journal of Synthetic Chemistry and Natural …, 2018).

The target of one test is T1, CDK5/p25 (Homo sapiens, UniProt Q00535).
T1 construct: made in house
Kind of test: CDK5/p25 in vitro kinase assay (33P-ATP, histone H1). The test is classed as biochemical.

Another test has as its target CK1δ/ε. The test is described as follows: CK1δ/ε in vitro kinase assay (CKS peptide). The class given is biochemical, porcine. The settings on record: Table 4; ATP 15 μM, triplicate; <50% inhibition at 10 μM = IC50 >10 μM. On the procedure: (§1) Products of series 2a–j, 3a–c, 4a–f, 9a–i, and 10 were evaluated in five different in vitro kinase assays: CDK5/p25, CK1δ/ε (casein kinase 1), GSK-3α/β, DYRK1A (dual-specificity, tyrosine phosphorylation regulated kinase), and CLK1 [37, 38, 39].
(§2) Controls were performed with appropriate dilutions of dimethyl sulfoxide (DMSO).
CK1δ/ε (porcine brain, native) was assayed as described for CDK1, but in buffer B, and using 25 μM CKS peptide ([…]pSAYSITA), a CK1-specific substrate.

For another test, the target named is CLK1 (Homo sapiens, UniProt P49759). Kind of test: CLK1 in vitro kinase assay (RS peptide). The class given is biochemical.
Chain of CLK1 (P49759 whole entry): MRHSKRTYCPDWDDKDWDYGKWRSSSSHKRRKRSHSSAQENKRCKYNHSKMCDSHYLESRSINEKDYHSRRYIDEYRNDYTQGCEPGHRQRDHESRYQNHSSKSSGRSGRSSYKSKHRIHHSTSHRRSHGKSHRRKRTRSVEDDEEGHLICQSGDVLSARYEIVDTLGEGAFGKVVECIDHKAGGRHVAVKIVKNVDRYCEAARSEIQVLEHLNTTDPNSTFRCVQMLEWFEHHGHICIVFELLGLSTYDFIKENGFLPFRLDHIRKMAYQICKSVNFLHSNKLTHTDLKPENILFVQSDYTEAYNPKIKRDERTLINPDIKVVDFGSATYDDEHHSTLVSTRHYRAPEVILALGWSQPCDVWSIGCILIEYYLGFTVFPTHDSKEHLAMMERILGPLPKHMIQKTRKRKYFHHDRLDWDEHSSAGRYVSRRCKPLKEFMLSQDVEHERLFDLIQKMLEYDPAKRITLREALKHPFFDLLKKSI
The next test has as its target DYRK1A (Homo sapiens, UniProt Q13627). Kind of test: DYRK1A in vitro kinase assay (Woodtide). The class given is biochemical. On the procedure: as §1, §2
Another test has as its target GSK-3α/β. The test is described as follows: GSK-3α/β in vitro kinase assay (GS-1 peptide). Particulars: Table 4; ATP 15 μM, triplicate; <50% inhibition at 10 μM = IC50 >10 μM. The class given is biochemical, porcine. On the procedure:
as §1, §2
GSK-3α/β (porcine brain, native) was assayed, in buffer A, with 0.5 mg BSA/mL + 1 mM DTT, using GS-1 ([…]pEDEEE) (pS stands for phosphorylated serine), a GSK-3 specific substrate, in the presence of 15 μmol/L [γ-^33P] ATP (3000 Ci/mmol; 10 mCi/mL) in a final volume of 30 μL. After 30 min incubation at 30 °C, the reaction was stopped by harvesting onto P81 phosphocellulose […] (Whatman, Dutscher SAS, Brumath, France) using a FilterMate harvester (PerkinElmer, Courtaboeuf, France), and were washed in 1% phosphoric acid. Scintillation fluid was added, and the radioactivity measured in a Packard counter.

T1 sequence (Q00535 whole entry): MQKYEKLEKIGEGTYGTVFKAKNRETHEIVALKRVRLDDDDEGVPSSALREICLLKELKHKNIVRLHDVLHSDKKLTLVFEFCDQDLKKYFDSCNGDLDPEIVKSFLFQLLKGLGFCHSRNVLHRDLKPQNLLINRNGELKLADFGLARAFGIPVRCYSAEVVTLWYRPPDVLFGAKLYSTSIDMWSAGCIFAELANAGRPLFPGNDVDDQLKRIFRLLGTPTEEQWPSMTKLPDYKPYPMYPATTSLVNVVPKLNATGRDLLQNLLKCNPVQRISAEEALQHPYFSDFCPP
T1 sequence (Q15078 99-307 partner limits assumed): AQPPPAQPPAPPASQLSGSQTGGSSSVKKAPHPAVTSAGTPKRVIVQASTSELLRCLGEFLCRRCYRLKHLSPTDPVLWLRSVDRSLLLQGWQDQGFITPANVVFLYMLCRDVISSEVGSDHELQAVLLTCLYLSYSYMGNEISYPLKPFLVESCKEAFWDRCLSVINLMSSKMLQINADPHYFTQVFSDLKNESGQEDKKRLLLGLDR
Experimental for CDK5/p25: CDK5/p25 (Human, recombinant) was prepared as previously described [37]. Its kinase activity was assayed in buffer A, with 1 mg of histone H1/mL, in the presence of 15 μM [γ-^33P] ATP (3000 Ci/mmol; 10 mCi/mL) in a final volume of 30 μL. After 30 min incubation at 30 °C, 25 μL aliquots of supernatant were spotted onto sheets of Whatman P81 phosphocellulose paper, and 20 s later, the filters were washed eight times (for at least 5 min each time) in a solution of 10 mL phosphoric acid/L of water. The wet filters were counted in the presence of 1 mL ACS (Amersham) scintillation fluid.

On to `O=c1c2c(ccc3nc(-c4cccnc4)sc32)ncn1Cc1ccccc1` [3a], for which the IC50 was more than 10 µM against CDK5/p25; more than 10 µM at CK1δ/ε; 2 µM against CLK1; 0.012 µM against DYRK1A; 3.7 µM on GSK-3α/β.

For the compound `O=c1c2c(ccc3nc(-c4cnccn4)sc32)ncn1Cc1ccccc1` [3b], the IC50 against CDK5/p25 was more than 10 µM; against CK1δ/ε it was more than 10 µM; against CLK1, 3.33 µM; against DYRK1A it was 0.133 µM; against GSK-3α/β it was 6 µM.

As to `Cn1cnc2ccc3nc(-c4cccnc4)sc3c2c1=O` [4a, 8-Methyl-2-(pyridin-3-yl)thiazolo[5,4-f]quinazolin-9(8H)-one], the IC50 against CK1δ/ε, on CLK1, on DYRK1A and against GSK-3α/β was more than 10 µM each time.

For `CC(C)n1cnc2ccc3nc(-c4cccnc4)sc3c2c1=O` [4b, 8-Isopropyl-2-(pyridin-3-yl)thiazolo[5,4-f]quinazolin-9(8H)-one], the IC50 at CK1δ/ε, against CLK1, against DYRK1A and against GSK-3α/β was more than 10 µM throughout.

Regarding `O=c1c2c(ccc3nc(-c4cccnc4)sc32)ncn1C1CC1` [4c, 8-Cyclopropyl-2-(pyridin-3-yl)thiazolo[5,4-f]quinazolin-9(8H)-one], the IC50 against CK1δ/ε is 6 µM; on CLK1 it was 0.018 µM; at DYRK1A, 0.011 µM; against GSK-3α/β, 0.068 µM.

As for `O=c1c2c(ccc3nc(-c4cccnc4)sc32)ncn1C1CCC1` [4d, 8-Cyclobutyl-2-(pyridin-3-yl)thiazolo[5,4-f]quinazolin-9(8H)-one], the IC50 at CK1δ/ε, on CLK1, against DYRK1A and at GSK-3α/β was more than 10 µM throughout.

On to `O=c1c2c(ccc3nc(-c4cccnc4)sc32)ncn1C1CCCC1` [4e, 8-Cyclopentyl-2-(pyridin-3-yl)thiazolo[5,4-f]quinazolin-9(8H)-one], for which the half-maximal inhibitory concentration (IC50) against CK1δ/ε, at CLK1, against DYRK1A and at GSK-3α/β was more than 10 µM throughout.

In the case of `O=c1c2c(ccc3nc(-c4cccnc4)sc32)ncn1C1CCCCC1` [4f, 8-Cyclohexyl-2-(pyridin-3-yl)thiazolo[5,4-f]quinazolin-9(8H)-one], the IC50 against CK1δ/ε, at CLK1, against DYRK1A and at GSK-3α/β was more than 10 µM in each case.

Take `COc1ccc2c(c1)[nH]c1c(C)nccc12` [Harmine, reference compound]: the IC50 against CK1δ/ε is 1.5 µM; at GSK-3α/β, more than 10 µM.

In the case of `COc1ncccc1-c1nc2ccc3ncn(C4CC4)c(=O)c3c2s1` [compound 10], the concentration for half-maximal inhibition (IC50) against CDK5/p25 is more than 10 µM; on CK1δ/ε, more than 10 µM; against CLK1 it was more than 10 µM; at DYRK1A, more than 10 µM; at GSK-3α/β it was not below 10 µM. Further, at DYRK1A (SAR discussion), the “DYRK inhibitory activity (in words)” value is “inactive”.
